Here are results for 6 molecules from patent publication US10585087B2, “Method for evaluating and selecting agent for suppressing odors of sulfide compounds” (KAO CORPORATION, priority 2015, dated 2020).

Experiment [1] has as its target T1, olfactory receptor OR4S2 (Homo sapiens, UniProt Q8NH73).
T1 construct: expressed in transfected cells; host or cells: HEK293
T1 sequence (Q8NH73 1-311): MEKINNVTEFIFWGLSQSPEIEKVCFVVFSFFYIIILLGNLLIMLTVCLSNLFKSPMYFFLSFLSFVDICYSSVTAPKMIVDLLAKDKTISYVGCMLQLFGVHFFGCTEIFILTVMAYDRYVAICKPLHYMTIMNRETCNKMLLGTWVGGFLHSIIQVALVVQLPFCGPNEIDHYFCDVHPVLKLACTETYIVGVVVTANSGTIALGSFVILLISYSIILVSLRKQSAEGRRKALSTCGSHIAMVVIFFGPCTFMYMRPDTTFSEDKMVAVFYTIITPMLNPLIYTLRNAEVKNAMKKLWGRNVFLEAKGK
In words: Luciferase reporter gene assay: suppression of OR4S2 response to DMDS or DMTS by test substance. Particulars: for response (Fold increase) of OR4S2 to DMTS in the presence of test substance: 300 μM DMTS, test substance 100 μM, FIG. 6; for response (Response %) of OR4S2 to DMDS in the presence of test substance: 1 mM DMDS, test substance 0 to 3000 μM, FIG. 5. In kind it is cell-based. The method, then: By using the same procedure as in Example 1 (1) to (3), HEK293 cells expressing OR4S2 (SEQ ID NO: 2) were prepared. The response of the olfactory receptor to DMDS (the value fLuc/hRluc) was measured in the presence and absence of a test substance by using luciferase reporter gene assay in accordance with the procedure in Example 1 (4). The value fLuc/hRluc induced by a stimulus of single DMDS, (X), the value fLuc/hRluc for cells without a stimulus of DMDS, (Y), and the value fLuc/hRluc induced by a co-stimulus of DMDS and a test substance, (Z), were determined, and the intensity of the response (Response (%)) of the receptor to DMDS in the presence of a test substance was determined by using the following formula. Response (%)=(Z−Y)/(X−Y)×100 The experiment was performed independently three times, and the average value of the experiments was determined. The concentration of DMDS to be added to a culture was set at 1 mM, and the concentration of a test substance to be added was changed in the range of from 0 to 3000 μM.
For the response to DMTS, the value fLuc/hRluc to a stimulus of single DMTS, (X′), was divided by the value fLuc/hRluc for cells without a stimulus of DMTS, (Y), and the value obtained by the division, (X′/Y), was set as a value of the response to DMTS (Fold increase). To compare the effect of a test substance on the response to DMTS, the value fLuc/hRluc induced by a co-stimulus of DMTS and a test substance, (Z′), was similarly divided by the value fLuc/hRluc for cells without a stimulus, (Y), to calculate (Z′/Y) as Fold increase. The experiment was performed independently three times, and the average value of the experiments was determined. The concentration of DMTS to be added to a culture was set at 300 μM, and the concentration of a test substance to be added was set at 100 μM.
(In general: In a reporter assay the amount or activity of a reporter protein is the signal.)

Experiment [2] can be described thus: Sensory test of odor-suppressing effect for sulfide compounds. In kind it is in vivo. Particulars: for odor intensity of DMTS in sensory test: 0.01% (v/v) DMTS and 0.1% (v/v) test substance in mineral oil, 11 evaluators, FIG. 7B; for odor intensity of DMDS in sensory test: 0.1% (v/v) DMDS and 0.1% (v/v) test substance in mineral oil, 10 evaluators, FIG. 7A. The method, then: For each of DMDS, cis-4-heptenal, and 1,4-cineol, a 0.1% (v/v) solution in mineral oil was prepared. For DMTS, a 0.01% (v/v) solution in mineral oil was prepared. Two cotton balls were put in a 20 mL glass bottle (Maruemu Corporation, No. 6), and one cotton ball was impregnated with 30 μL of the DMDS or DMTS solution, and the other cotton ball was impregnated with 30 μL a solution of one of the OR4S2 antagonists. The glass bottle containing the cotton balls was covered with a lid, and left to stand at 37° C. for 1 hour, and thereafter used as a test sample for a sensory test. Glass bottles containing only a cotton ball impregnated with the DMDS or DMTS solution were prepared as reference samples, and a glass bottle containing only a cotton ball impregnated with mineral oil (Vehicle) was prepared as a control sample.
A sensory test was performed in a single-blinded mode with 10 evaluators for DMDS and 11 evaluators for DMTS. The test was initiated after two o'clock pm, which was 1.5 hours or longer after a meal. To prevent diffusion of a smell, the test was performed essentially under a fume hood. To eliminate the influence of adaptation to odors of sulfide compounds, the evaluators were appropriately checked for the intensity of recognition to the odor of DMDS or DMTS in the test, and rested as necessary. The evaluators were separated into two groups, and one group evaluated the odor-suppressing effect for DMDS or DMTS with respect to cis-4-heptenal and 1,4-cineol, in the order presented, and the other group evaluated it with respect to 1,4-cineol and cis-4-heptenal, in the order presented. Each test sample was replaced with another one after evaluation by each of three evaluators.
In evaluation of odors of test samples, the following criteria in five grades were set for each evaluator: “odor of DMDS (or DMTS) was 1: unidentifiable, 2: perceivable, 3: easily identifiable, 4: strong, 5: intolerably strong”, and the evaluators rated the odor intensity of DMDS (or DMTS) for each test sample in nine grades from 1.0 to 5.0 at an interval of 0.5, where the odor intensity of single DMDS (or DMTS) was assumed as 3. The average value of the evaluation results by the evaluators was determined.

Experiment [3] addresses T1, olfactory receptor OR4S2. In words: Luciferase reporter gene assay: response of olfactory receptor to sulfide compound. In kind it is cell-based. Particulars: for response of olfactory receptor OR4S2 (fold increase) in screen of 428 olfactory receptors / concentration dependence of the response of OR4S2: HEK293 cells expressing OR4S2; for response of olfactory receptor OR4S2 (fold increase) in screen of 428 olfactory receptors: 100 μM sulfide compound, FIG. 1; for concentration dependence of the response of OR4S2: different concentrations, FIG. 2. An excerpt: A human olfactory receptor was cloned by using the PCR method with human genomic DNA (G1521: Promega Corporation) as a template on the basis of sequence information registered in GenBank. Each gene amplified through the PCR method was incorporated into a pENTR vector (Invitrogen) in accordance with the manual, and recombined, by utilizing the NotI and AscI sites present in the pENTR vector, with a pME18S vector at the NotI and AscI sites produced in the downstream of the Flag-Rho tag sequence of the pME18S vector.
An RTP1S gene (SEQ ID NO: 3) encoding RTP1S (SEQ ID NO: 4) was incorporated into the pME18S vector at the EcoRI and XhoI sites thereof.
HEK293 cells expressing any one of 428 human olfactory receptors were produced. A reaction solution with a composition shown in Table 2 was prepared and left to stand in a clean bench for 15 minutes, and then added to each well of a 96-well plate (BD Biosciences). Subsequently, 90 μL of HEK293 cells (3×10^5 cells/cm^2) was seeded in each well, and cultured in an incubator retained at 37° C. and 5% CO2 for 24 hours. As a control, cells with conditions for no expression of an olfactory receptor (Mock) were prepared and used in an experiment.
An olfactory receptor expressed on HEK293 cells increases the intracellular cAMP level through conjugation with the intracellular Gαs followed by resulting activation of adenylate cyclase. For smell response measurement in this study, luciferase reporter gene assay was used in which increase of the intracellular cAMP level is monitored as an emission value derived from a firefly luciferase gene (fluc2P-CRE-hygro). Transgenesis was simultaneously performed by using a product with a sea pansy luciferase gene fused to the downstream of the CMV promoter (hRluc-CMV), and the resultant was used as an internal standard to correct errors of transgenesis efficiency and the number of cells.
The medium was removed from the culture prepared in the above (3), and 75 μL of a solution containing a sulfide compound prepared with DMEM (NACALAI TESQUE, INC.) was added. The sulfide compound was 100 μM of dimethyl disulfide (DMDS) or dimethyl trisulfide (DMTS). The cells were cultured in a CO2 incubator for 3 hours to allow the luciferase gene to be sufficiently expressed in the cells. Measurement of the activity of luciferase was performed by using a Dual-Glo™ luciferase assay system (Promega Corporation) in accordance with an operation manual of the product. For each stimulus condition, the value fLuc/hRluc was calculated by dividing the emission value derived from firefly luciferase by the emission value derived from sea pansy luciferase. The value fLuc/hRluc derived from firefly luciferase and induced by a stimulus of a sulfide compound was divided by the value fLuc/hRluc for cells without a stimulus of a sulfide compound to calculate a fold increase, and the fold increase was used as an indicator of intensity of response.

As to `CC(C)C12CCC(C)(CC1)O2` [1,4-cineol, 1,4-Cineole], on olfactory receptor OR4S2 [1], the “response (Fold increase) of OR4S2 to DMTS in the presence of test substance” value is “suppressed the response of OR4S2 to DMTS” and the “response (Response %) of OR4S2 to DMDS in the presence of test substance” value is “suppressed the response of OR4S2 to DMDS in a concentration-dependent manner”. In experiment [2], the “odor intensity of DMTS in sensory test” value is recorded as “suppressed the odor intensity” and the “odor intensity of DMDS in sensory test” value is reported as “suppressed the odor intensity”.

For the molecule `CSSC` [DMDS, Dimethyl disulfide], at olfactory receptor OR4S2 [3], the “response of olfactory receptor OR4S2 (fold increase) in screen of 428 olfactory receptors” value was “exhibits a specific response” and the “concentration dependence of the response of OR4S2” value is on record as “in a concentration-dependent manner”.

With `CSSSC` [DMTS, Dimethyl trisulfide], on olfactory receptor OR4S2 [3], the “response of olfactory receptor OR4S2 (fold increase) in screen of 428 olfactory receptors” value is listed as “exhibits a specific response” and the “concentration dependence of the response of OR4S2” value is given as “in a concentration-dependent manner”.

With `CC/C=C\CCC=O` [cis-4-Heptenal, (Z)-Hept-4-enal], on olfactory receptor OR4S2 [1], the “response (Fold increase) of OR4S2 to DMTS in the presence of test substance” value is reported as “suppressed the response of OR4S2 to DMTS” and the “response (Response %) of OR4S2 to DMDS in the presence of test substance” value is listed as “suppressed the response of OR4S2 to DMDS in a concentration-dependent manner”. Besides, in experiment [2], the “odor intensity of DMTS in sensory test” value is reported as “suppressed the odor intensity” and the “odor intensity of DMDS in sensory test” value is recorded as “suppressed the odor intensity”.

On to `CSC` [dimethyl sulfide (DMS), Dimethylsulfide], for which the “response of OR4S2” value on olfactory receptor OR4S2 [3] (concentration of 1 mM and 3 mM, FIG. 3) is given as “responded”.

On to `CS` [methylmercaptan, Methylmercaptan], for which the “response of OR4S2” value at olfactory receptor OR4S2 [3] (3 mM, FIG. 4) is given as “did not respond”.
